Entries after “also recorded” stand apart in the source; their conditions may differ.
What was measured:
MCF-7 cells [1] = assay: Cell cycle analysis by flow cytometry (PI); format: cell-based, human; settings: 36 h
Procedure: (§1) Experiment: MCF-7 cells (5 mL) were seeded in 60 mm cell culture dishes at a density of 1.5×10^5 cells/mL. The cells were incubated with 2 and 4 μM (1R,2R,5S)-1c for 36 h for cell cycle analysis. After the required incubation, cells were processed and analyzed by flow cytometry. Cell cycle data was analyzed using Flow Jo software. Cell cycle analysis and mitotic indices of MCF-7 cells in the absence and presence 2 and 4 μM (1R,2R,5S)-1c. Cell cycle analysis was done using flow cytometer after incubating the cells with PI. The data was analyzed using Flow Jo software. Data were average of three independent set of experiments with S.D (±). Mitotic index (percentage of cells in mitosis) was calculated based on DNA morphology of cells stained with Hoechst 33258. Data were average of three independent set of experiments with S.D (±). 1000 cells were scored in each set.

p53 in MCF-7 cells = assay: Immunostaining for nuclear accumulation of p53; format: cell-based, human; settings: MCF-7, 4 and 8 μM, 36 h
Procedure: (§2) Experiment: MCF-7 (5×10^4 cells/well) cells were seeded on glass cover slip in a 24-well cell culture plate. After the cells were attached, they were incubated with 4 and 8 μM (1R,2R,5S)-1c for 36 h, fixed with 3.7% formaldehyde and processed for immunostaining. After fixing, cells were blocked with 2% BSA and incubated with anti-p53 IgG (1:300) and anti-p21 IgG (1:300) for 2 h at 37° C. Primary antibody incubation was followed by Alexa Fluor 568-conjugated sheep anti-mouse secondary IgG (1:400) incubation for 1 h at 37° C. Hoechst 33258 was used to stain the DNA. Immunofluorescence images were captured using Eclipse TE 2000U microscope (Nikon, Tokyo, Japan) at 40× magnification and processed by Image-Pro Plus software (Media Cybernetics, Silver Spring, Md.). To determine the percentage of cells with nuclear accumulation of p53 and p21, 1000 cells were scored in each case. The experiment was repeated thrice.

MCF10A cells = assay: Sulforhodamine B assay, normal epithelial breast cells MCF10A (selectivity); format: cell-based; settings: MCF10A IC50 against MCF-7 IC50
Procedure: (§3) The present invention further provides a Sulforhodamine B assay method for investigating the anti-cancer efficacies of the compounds of the present Pd—NHC series on MCF-7, HeLa, A549, B16-F10 and EMT6/AR1 cancer cell lines and also for a comparative study on normal skin cell line L929 and normal epithelial breast cells MCF10A. The said Sulforhodamine B assay is conducted as per reported method (Skehan et al., J. Natl. Cancer Inst. 1990, 82, 1107).

[2] = test system: intracellular ROS in MCF-7 cells; assay: Reactive oxygen species (ROS) assay using H2DCFDA, flow cytometry; format: cell-based, human; settings: 24 h
Procedure: Experiment: Reactive oxygen species (ROS) production in cells when treated with (1R,2R,5S)-1c, was estimated by ROS assay using 2′,7′-dichlorodihydrofluorescein diacetate (H2DCFDA). MCF-7 cells (5 mL) were seeded in 60 mm cell culture dishes at a density of 1.5×10^5 cells/mL. After cell attachment, they were incubated with 4 and 8 μM (1R,2R,5S)-1c for 24 h. Cells treated with 30 μM hydrogen peroxide was used as a positive control. Following 24 h of incubation, the cells were processed and analyzed using flow cytometry. The percentage of DCFH-DA positive MCF-7 cells in the absence and presence 4 and 8 μM (1R,2R,5S)-1c was determined by flow cytometry. 30 μM H2O2 was used as a positive control. Data are average of three independent set of experiments and ±indicates S.D.

p21 in MCF-7 cells = assay: Immunostaining for nuclear accumulation of p21; format: cell-based, human; settings: MCF-7, 4 and 8 μM, 36 h
Procedure: as §2

EMT6/AR1 cells = assay: Sulforhodamine B assay, multidrug resistant EMT6/AR1 cells; format: cell-based, mouse; settings: EMT6/AR1 multidrug resistant mammary cancer cells, SRB
Procedure: as §3

MCF-7 cells [3] = assay: Mitotic index from DNA morphology (Hoechst 33258); format: cell-based, human
Procedure: as §1

PARP-1 in MCF-7 cells = assay: Western blot analysis for PARP cleavage; format: cell-based, human; settings: MCF-7, 4 and 8 μM, 48 h; cisplatin 4 μM as comparison
Procedure: Experiment: MCF-7 cells (5 mL) were seeded at a density of 1.5×10^5 cells/mL in 60 mm cell culture dishes. After cell attachment, they were incubated with 4 and 8 μM (1R,2R,5S)-1c and 4 μM cisplatin for 48 h. The cells were then processed and the whole cell lysate was isolated. An equal amount of total protein was resolved on SDS-PAGE and electroblotted onto a PVDF membrane (Millipore). Immunoblotting was performed using specific antibodies against PARP-1 and β-actin. The blots were developed by chemiluminescence using HRP conjugated secondary IgG.

B16-F10 cells = assay: Sulforhodamine B assay, B16-F10 skin cancer cells; format: cell-based, mouse; settings: SRB
Procedure: as §3

HeLa cells = assay: Sulforhodamine B assay, proliferation of HeLa cells; format: cell-based, human; settings: for IC50: HeLa cervical cancer cells, 24 h, SRB
Procedure: as §3
Experiment: The anti-proliferative activity of the present palladium N-heterocyclic carbene complexes on two different cancer cell lines MCF-7 and HeLa is tested using Sulforhodamine B assay to reveal their anti-tumor properties. The evaluation of growth inhibition of these complexes is done from their IC50 values for the inhibition of cell growth. The IC50 values are compared with Cisplatin to determine any increase in efficacy.
The seeded cells in 96-well plates are incubated with the complex for 24 h and the assay is performed.
The data obtained is graphically represented in accompanying FIG. 2.

γ-H2AX in MCF-7 cells = assay: Immunofluorescence microscopy for DNA damage (γ-H2AX); format: cell-based, human; settings: MCF-7, 4 and 8 μM, 36 h; cisplatin 4 μM as comparison
Procedure: Experiment: MCF-7 (5×10^4 cells/well) cells were seeded on glass cover slip in a 24 well cell culture plate. After the cell were attached, they were incubated with 4 and 8 μM (1R,2R,5S)-1c and 4 μM cisplatin for 36 h, fixed with 3.7% formaldehyde and processed for immunostaining. After fixing, cells were blocked with 2% BSA and incubated with anti-γ H2AX IgG (1:200) for 2 h at 37° C. followed by Alexa flour 555 goat anti-rabbit secondary IgG (1:400) for 1 h at 37° C. Hoechst 33258 was used to stain the DNA. Immunofluorescence imaging was performed using iPlan-apochromat 40×/1.3 NA oil immersion objective in Confocal Laser Scanning microscope. Image J software was used to calculate the fluorescence intensity. 500 cells were scored in each case.

trans-[1-(1R)-menthyl-4-(ethyl)-1,2,4-triazol-5-ylidene]2Pd(OCOCF3)2 [(1R,2R,5S)-1c]
% of cells in different phases of cell cycle: G1 (MCF-7 cells [1]; MCF-7, 2 μM): 30 ± 2% | % of cells in different phases of cell cycle: G2/M (MCF-7 cells [1]; MCF-7, 2 μM): 35 ± 2% | % of cells in different phases of cell cycle: S (MCF-7 cells [1]; MCF-7, 2 μM): 31 ± 2% | % of cells in different phases of cell cycle: G1 (MCF-7 cells [1]; MCF-7, 4 μM): 18 ± 2% | % of cells in different phases of cell cycle: G2/M (MCF-7 cells [1]; MCF-7, 4 μM): 50 ± 2% | % of cells in different phases of cell cycle: S (MCF-7 cells [1]; MCF-7, 4 μM): 32 ± 3% | Cell cycle block (in words) (MCF-7 cells [1]; MCF-7, 2 and 4 μM): blocks MCF-7 cells at the G2 phase; also recorded: blocked cells at the G2/M phase | Nuclear accumulation of p53 (in words) (p53 in MCF-7 cells): leads to the nuclear accumulation of p53 | times more selective towards the cancer cells (MCF-7 vs MCF10A) (MCF10A cells): around 16 times | % of DCFH-DA positive cells ([2]; MCF-7, 4 μM): 49 ± 11% | % of DCFH-DA positive cells ([2]; MCF-7, 8 μM): 74 ± 1% | Intracellular ROS generation (in words) ([2]; MCF-7, 4 and 8 μM): leads ROS production in cells; also recorded: ROS is generated in MCF-7 cells | Nuclear accumulation of p21 (in words) (p21 in MCF-7 cells): nuclear accumulation of p21; also recorded: transcriptionally activates p21 | IC50 (EMT6/AR1 cells): 4.8 ± 0.3 µM | Mitotic Index (percentage of cells in mitosis) (MCF-7 cells [3]; MCF-7, 2 μM): 3 ± 1% | Mitotic Index (percentage of cells in mitosis) (MCF-7 cells [3]; MCF-7, 4 μM): 3.2 ± 1% | Arrest at mitosis (in words) (MCF-7 cells [3]; MCF-7, Hoechst 33258 DNA morphology): did not arrest cells at mitosis | PARP cleavage (in words) (PARP-1 in MCF-7 cells): more pronounced than cisplatin; also recorded: cleaves PARP in MCF-7 cells | IC50 (B16-F10 cells): 1.3 ± 0.4 µM | IC50 of Cisplatin against HeLa as multiple of IC50 of the complex (HeLa cells; HeLa): around 4 times | IC50 (HeLa cells; listed as drawing 41): 2.3 ± 1 µM | IC50 (HeLa cells; listed as drawing 48): 2.3 ± 1 µM | DNA damage, γ-H2AX immunostaining (in words) (γ-H2AX in MCF-7 cells): stronger DNA damaging effect on MCF-7 cells than cisplatin; also recorded: more DNA damage than compared to Cisplatin; also recorded: causes DNA damage in MCF-7 cells
